{
  "source": "patent US20090018620A1",
  "about": "“METHOD FOR RESTORING AN E[…]” ([…], priority 2007, published 2009)",
  "key": {"LSt neurons [1]": {"test_system": "LSt neurons", "experiment": "Muscimol injection into LSt neuron area 3.4 s after LSt neuron microstimulation, during ongoing rhythmic BS EMG activity (FIG. 4)", "format": "in vivo, rat", "method": "(§1) All procedures were in accordance with the European Communities Council Directives 86/609/EEC on the use of laboratory animals. Male adult sexually naïve Wistar rats (Janvier, Le Genest-St-Isle, France) of 275-325 grams, housed for at least 4 days in our animal facility before experimentation, were anesthetized with […] intraperitoneal urethane while body temperature was maintained at 37° C. with a homeothermic blanket. […] Custom-made bipolar steel wire electrodes (AS631, CoonerWire, CA, USA) were implanted into the exposed dorsal part of the right bulbospongiosus (BS) muscle. After suprapubic midline abdominal incision, a 1.1 mm diameter mineral oil-filled catheter was inserted into the lumen of the right seminal vesicle (SV) via its apex or the right vas deferens (VD) was cut and a 0.61 mm diameter catheter filled with isotonic salt solution inserted into the prostatic portion of the VD lumen. Then, the spine was exposed dorsally and fixed with a stereotaxic frame. Laminectomy was performed between vertebrae L1-T13 to expose […] spinal level and the dura was carefully removed. To improve intraspinal access, we incubated the spinal cord for 20 minutes with 3 units/μl collagenase type VII from Clostridium histolyticum (Sigma-Aldrich Chimie, St.Quentin Fallavier, France). To target T12 to L6 spinal levels in FIG. 2C, we performed 2-3 laminectomies on the same animal. Acute spinalization was performed through a complete spinal transection between T8 and T9 spinal levels one hour before microstimulation started. We performed bilateral sectioning of i) the hypogastric and pelvic nerves close to the major pelvic ganglion or iii) the dorsal nerves of the penis at the penile crus. A single experiment lasted 2 to 4 hours.\n(§2) Monopolar spinal microstimulation was performed with a ‘Formvar’-coated nichrome wire of 50 μm diameter (AM-Systems Inc. WA, USA). Typically, the electrode was positioned on the dorsal surface at L4 spinal level, adjacent to the right of the dorsal spinal artery and lowered vertically with a hydraulic microdrive (Trent-Wells, Coulterville, Calif., USA) to ˜1600 μm depth in correspondence with the stereotaxic coordinates for laminae VII and X (S2), taking as electrode depth the read-out of the microdrive. A reference electrode was placed in the vicinity of the tail. Electrical stimuli were delivered using a pulse generator (model-2100, AM-Systems Inc. WA, USA). Biphasic rectangular current pulses of 0.5 ms duration applied in short trains of 60 to 100 pulses at 200 Hz for a total duration of 300 to 500 ms were applied. This stimulus was optimal without causing temporal overlap between stimulus and the SV/VD/BS muscle responses, according to preliminary experiments. […]"}, "LSt neurons [2]": {"test_system": "LSt neurons", "experiment": "Muscimol injection into LSt neuron area at L4 immediately before intraspinal microstimulation, BS EMG recording (FIG. 3)", "format": "in vivo, rat", "method": "as §1, §2"}, "[3]": {"conditions": "~20 minutes after muscimol injection"}},
  "note": "“Also recorded” adds a separate entry of the source.",
  "data": [
    {"molecule": "NCc1cc(=O)[nH]o1", "note": "[muscimol]", "values": [
      {"measurement": "Time to full suppressive effect on BS EMG activity after muscimol injection", "setting": "LSt neurons [1]; average of 5 animals, injection total duration 400 ms", "result": "≤ 160 ± 120", "unit": "ms"},
      {"measurement": "Rhythmic pattern of BS EMG activity, of the control response", "setting": "LSt neurons [1]; muscimol applied 3.4 s after end of LSt neuron microstimulation, mean BS rEMG 0.3-15.3 s after injection, n=5, P<10^−5", "result": "2±2", "unit": "%"},
      {"measurement": "Effect on ongoing BS EMG activity (example experiment)", "setting": "LSt neurons [1]; ~200 nl of 50 μM muscimol injected 3.4 s after microstimulation, LSt neuron area adjacent to electrode tip", "result": "completely interrupted the BS EMG activity; also recorded: rapidly turned off BS EMG activity"},
      {"measurement": "BS EMG response to microstimulation after recovery period", "setting": "LSt neurons [1]; [3]", "result": "partial response recovery"},
      {"measurement": "BS EMG activity following microstimulation, of the control response", "setting": "LSt neurons [2]; anesthetized rats, 50 μM muscimol injected at L4 near electrode tip, microstimulation immediately after, n=5, P<10^−5", "result": "6±5", "unit": "%"},
      {"measurement": "BS EMG activity during the time of microstimulation (unrelated to the ejaculation response) in the presence of muscimol as compared to controls", "setting": "LSt neurons [2]; anesthetized rats, n=5, P=0.07", "result": "58±25", "unit": "%"},
      {"measurement": "Effect on BS EMG activity evoked by second identical microstimulation (example experiment)", "setting": "LSt neurons [2]; ~200 nl of 50 μM muscimol in the vicinity of the electrode tip, immediately before microstimulation", "result": "abolished BS EMG activity"},
      {"measurement": "BS EMG response to third microstimulation (recovery)", "setting": "LSt neurons [2]; [3]", "result": "partial response recovery"}
    ]}
  ]
}
